Assay results: patent publication US8945361B2, “Electrophoresis standards, methods and kits” (ProteinSimple, priority 2005, dated 2015)
Where a SMILES comes first, the peptide text is derived from it. The star is where a group is joined. 5TAMRA = CN(C)c1ccc2c(c1)Oc1cc(N(C)C)ccc1C21OC(=O)c2cc(C(=O)*)ccc21; X1 = [N-]=[N+]=Nc1c(F)c(F)c(C(=O)*)c(F)c1F

Key:
[1] = pI mobility standard
From the text: The pI of standards can be determined directly in IEF PAGE gels using a pH meter with a microprobe.

[2] = expected pKa's, net charge and pI of the Example 5 peptide; type: physicochemical
From the text: The blocks of lysine (K) and glutamic acid (E) residues contain basic and acidic ionizable groups at a variety of pKa values in keeping with the proximity effects described above. […] The approximate expected net charge on the peptide at various pH values is then as follows: pH 11, −3; pH 10, −2.5; pH 9, −1.7; pH 8, −0.8; pH 7, +0.3; pH 6, +1.2; pH 5, +2.3; pH 4, +3.2; pH 3, +4, pH 2, +4.5; pH 1, +5. […] The peptide is therefore expected to be a useful pI standard that forms a tight band under electrophoretic conditions in a pH gradient. Additional standards of desired pIs can be generated by systematically varying the number of sequential K and E residues in a set of peptides based on the above sequence.

Molecule | pI [1] | approximate expected net charge ([2]; pH 1) | approximate expected net charge ([2]; pH 2) | approximate expected net charge ([2]; pH 3) | approximate expected net charge ([2]; pH 4) | approximate expected net charge ([2]; pH 5) | approximate expected net charge ([2]; pH 6) | approximate expected net charge ([2]; pH 7) | approximate expected net charge ([2]; pH 8) | approximate expected net charge ([2]; pH 9) | approximate expected net charge ([2]; pH 10) | approximate expected net charge ([2]; pH 11)
C[C@H](NC(=O)CNC(=O)[C@@H](N)CCCCNC(=O)c1c(F)c(F)c(N=[N+]=[N-])c(F)c1F)C(=O)N[C@@H](CCC(=O)O)C(=O)N[C@@H](Cc1c[nH]cn1)C(=O)N[C@@H](Cc1c[nH]cn1)C(=O)N[C@@H](CCCCNC(=O)c1ccc2c(c1)C(=O)OC21c2ccc(N(C)C)cc2Oc2cc(N(C)C)ccc21)C(=O)NCC(=O)O [H2N—K(ATFB)GAEHHK(5-TAMRA)G-OH] (H-K(X1)GAEHHK(5TAMRA)G-OH) | approximately 5.45 | – | – | – | – | – | – | – | – | – | – | –
Ac—K(ATFB) KKKKKAibAibEEEGG K(5-TAMRA)G-NH2 | – | ~+5 | ~+4.5 | ~+4 | ~+3.2 | ~+2.3 | ~+1.2 | ~+0.3 | ~−0.8 | ~−1.7 | ~−2.5 | ~−3
